Test results: ChEMBL document CHEMBL1759992
Activity calls are given as the source filed them. The rule behind the calls is not given here.

Columns and labels:
[1] = system: Rattus norvegicus; assay: Inhibition of lethal factor-induced toxicity in Fischer 344 rat assessed as enhancement of survival rate at 5 mg/kg, iv followed by administration of 10 ug lethal toxin after 20 to 30 mins of compound dosing; type: functional, organism-based; design: dose 5 mg/kg
[2] = system: Rattus norvegicus; assay: Inhibition of lethal factor-induced toxicity in Fischer 344 rat assessed as enhancement of survival rate at 2.5 mg/kg, iv followed by administration of 10 ug lethal toxin after 20 to 30 mins of compound dosing; type: functional, organism-based; design: dose 2.5 mg/kg

SMILES | Survival [1] | Survival [2]
Cc1cc(CNCCCC[C@@H](Nc2ccc(F)c(C)c2)C(=O)NO)ccc1F | inactive | –
O=C(NO)[C@@H](CCCCNCc1ccc(F)cc1)Nc1ccc(F)c(Cl)c1 | inactive | –
Cc1cc(O[C@H](CCCCCNCCc2ccc(F)cc2)C(=O)NO)cc(C)c1F | inactive | –
Cc1cc(N[C@H](CCCCNCc2ccc(F)cc2)C(=O)NO)cc(C)c1F | Active | Active
Cc1cc(O[C@H](CCCCNCc2ccc(F)cc2)C(=O)NO)cc(C)c1F | inactive | –
Cc1cc(O[C@H](CCCCCNCc2ccc(F)cc2)C(=O)NO)cc(C)c1F | inactive | –
CO[C@H](C[C@H](CCCCCNCCc1ccc(F)cc1)C(=O)NO)c1ccc(F)cc1 | inactive | –
Cc1cc(CNCCCC[C@@H](Oc2ccc(F)c(C)c2)C(=O)NO)ccc1F | inactive | –
Cc1cc(CNCCCC[C@@H](Nc2cc(C)c(F)c(C)c2)C(=O)NO)ccc1F | Active | inactive
CO[C@H](C[C@H](CCCCCNCc1ccc(F)cc1)C(=O)NO)c1ccc(F)cc1 | inactive | –
CO[C@H](C[C@H](CCCCNCc1ccc(F)cc1)C(=O)NO)c1ccc(F)cc1 | Active | inactive
